Here are results for seven molecules from publication PMC12197642 (Viruses, 2025).

One may read the viability as the share of living cells, or the viability signal relative to a control. A high value points to better survival.

One series deals with FMDV 2C helicase (Foot-and-mouth disease virus serotype O, UniProt P03305). It counts as biochemical.
Series [1] relates to FMDV serotype O strain O/China. It counts as cell-based, foot-and-mouth disease virus (FMDV).
The test system of series [2] is FMDV serotype O strain O/China. In words: microbe, parasite or virus in culture. It counts as cell-based, foot-and-mouth disease virus (FMDV).
A further series is described as follows: in vitro. As to conditions: hamster.
Series [3] concerns FMDV serotype O strain O/China. It counts as cell-based, foot-and-mouth disease virus (FMDV). The source holds these as a separate data set.
Another series relates to picornaviral 2C. As to conditions: cited from earlier work.
Where [4] appears, read: Foot-and-mouth disease virus, BHK-21, read-out: reduction of viral plaque formation (inhibitory efficacy).

Chain of FMDV 2C helicase (P03305 1108-1425 limits assumed): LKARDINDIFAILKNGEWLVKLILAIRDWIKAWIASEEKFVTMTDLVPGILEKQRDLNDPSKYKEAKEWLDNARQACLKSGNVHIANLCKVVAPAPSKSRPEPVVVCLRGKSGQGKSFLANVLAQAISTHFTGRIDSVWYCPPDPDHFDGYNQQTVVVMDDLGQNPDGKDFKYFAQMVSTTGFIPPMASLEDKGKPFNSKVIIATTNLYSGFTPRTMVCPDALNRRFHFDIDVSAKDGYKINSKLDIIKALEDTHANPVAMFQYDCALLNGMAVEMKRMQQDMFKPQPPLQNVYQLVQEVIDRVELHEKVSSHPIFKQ

Turning to `COc1ccc2c(c1)cc1n2CCN2CCCN=C12` [Compound C4, 11-methoxy-3,4,6,7-tetrahydro-2H-pyrimido[2′,1′:3,4]pyrazino[1,2-a]indole], the inhibition type result at FMDV 2C helicase is “mixed inhibition”. The “antiviral activity by indirect immunofluorescence” value in series [1] is on record as “superior viral replication suppression”. In series [2], the “concentration achieving effective FMDV suppression” value came to 160 µM and the “inhibition rate (plaque assay)” value came to 99.7%. The molecule further had a CC50 in “in vitro” of 284 µM. In addition, the “suppression of FMDV RNA levels” value in series [3] was “significantly outperformed 2-MPO”.
Take `Sc1cnn[nH]1` [Compound C2, 1H-1,2,3-triazole-5-thiolate]: the inhibition type entry against FMDV 2C helicase was “competitive inhibition”. Moreover, in “in vitro”, the viability at 500 µM is above 50% and the CC50 came out at 1330 µM.
With `COc1cccc2c1NC(=O)C(Cl)(Cl)C2=O` [Compound C5, 3,3-dichloro-8-methoxy-2,4(1H,3H)-quinolinedione], the inhibition type result on FMDV 2C helicase is “noncompetitive inhibition”. This molecule came in with a CC50 in the series “in vitro” of 127 µM.
As for `Cl.N=C(N)N` [Guanidine hydrochloride], the “effect on helicase and ATPase activities” value with picornaviral 2C is “suppresses helicase and ATPase activities”.
With `O=C1C=CC2(C=C1)OC(=O)c1ccccc1O2` [Compound C6, Spiro (4H-[1,3]benzodioxine-2,4′-[2,5]cyclohexadiene)-1′,4-dione], the inhibition type entry on FMDV 2C helicase was “noncompetitive inhibition”. Further, the CC50 in the series “in vitro” stood at 3 µM.
In the case of `Cc1cccc[n+]1[O-]` [Compound C1, 2-methylpyridine 1-oxide], the inhibition type result against FMDV 2C helicase is on record as “mixed inhibition”. Besides, the “antiviral activity by indirect immunofluorescence” value in series [1] is on record as “superior viral replication suppression”. For the same molecule, in series [2], the “concentration achieving effective FMDV suppression” value was 400 µM and the “reduction of viral plaque formation” value came out at 90.2%. For the same molecule, in series [2] (setting [4]), the inhibition at 200 µM stood at 97.3% and the inhibition at 400 µM was 99.8%. The viability at 500 µM in “in vitro” was above 50%.
Turning to `Oc1ccccn1` [Compound C3, pyridin-2-ol], on FMDV 2C helicase, the inhibition type entry is given as “competitive inhibition”. In “in vitro”, the viability at 500 µM was above 50% and the CC50 was found to be 852 µM.
